# Laboratory results as given in patent publication US12122778B2, “Activating pyruvate kinase R” (Novo Nordisk Health Care AG, priority 2018, dated 2024).
# Key:
# PKR(wt) = PKR(wt) (Homo sapiens, UniProt P30613); experiment: Luminescence Biochemical Assay (Kinase Glo Plus), wild type PKR; settings: without FBP; for activation at 1.54 µM: 1.54 μM compound, read-out: AC50 LUM KGP woFBP % Fold@1.54 μM mean; for AC50: read-out: AC50 LUM KGP woFBP AC50 μM gmean; for Emax: read-out: AC50 LUM KGP woFBP MAX % FOLD mean
# PKR(G332S) = PKR(G332S) (Homo sapiens, UniProt P30613, G332S); experiment: Luminescence Biochemical Assay (Kinase Glo Plus), PKR G332S mutant; settings: with FBP; for activation at 1.54 µM: 1.54 μM compound, read-out: AC50 LUM KGP FBP % Fold@1.54 μM mean; for AC50: read-out: AC50 LUM KGP FBP AC50 μM gmean (column A); for Emax: read-out: AC50 LUM KGP FBP MAX % FOLD mean
# PKR(R510Q) = PKR(R510Q) (Homo sapiens, UniProt P30613, R510Q); experiment: Luminescence Biochemical Assay (Kinase Glo Plus), PKR R510Q mutant; settings: without FBP; for activation at 1.54 µM: 1.54 μM compound, read-out: AC50 LUM KGP woFBP % Fold@1.54 μM mean; for AC50: read-out: AC50 LUM KGP woFBP AC50 μM gmean; for Emax: read-out: AC50 LUM KGP woFBP MAX % FOLD mean
# Chain of PKR(R510Q) (P30613 whole entry R510Q): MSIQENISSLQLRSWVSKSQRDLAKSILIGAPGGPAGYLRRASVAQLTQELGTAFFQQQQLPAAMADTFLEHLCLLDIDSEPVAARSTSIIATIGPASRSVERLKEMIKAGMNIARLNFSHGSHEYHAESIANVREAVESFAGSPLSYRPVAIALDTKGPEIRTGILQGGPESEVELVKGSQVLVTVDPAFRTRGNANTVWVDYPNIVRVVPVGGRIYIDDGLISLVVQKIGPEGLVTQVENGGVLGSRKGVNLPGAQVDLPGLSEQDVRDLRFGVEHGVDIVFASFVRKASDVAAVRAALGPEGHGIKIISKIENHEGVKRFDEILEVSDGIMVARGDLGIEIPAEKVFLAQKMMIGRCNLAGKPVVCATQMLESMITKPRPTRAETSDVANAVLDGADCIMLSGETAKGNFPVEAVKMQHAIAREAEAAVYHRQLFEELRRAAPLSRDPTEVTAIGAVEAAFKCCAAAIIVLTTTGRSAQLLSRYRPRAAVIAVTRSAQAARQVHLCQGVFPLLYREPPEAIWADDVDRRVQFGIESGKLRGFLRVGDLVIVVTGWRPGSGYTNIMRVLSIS
# Chain of PKR(wt) (P30613 whole entry): as the sequence (P30613 whole entry R510Q) above, with Q510R counted along it
# Chain of PKR(G332S) (P30613 whole entry G332S): as the sequence (P30613 whole entry R510Q) above, with G332S, Q510R counted along it
activation at 1.54 µM (PKR(wt)) [%],AC50 (PKR(wt)) [µM],Emax (PKR(wt)) [%],activation at 1.54 µM (PKR(G332S)) [%],AC50 (PKR(G332S)) [µM],Emax (PKR(G332S)) [%],activation at 1.54 µM (PKR(R510Q)) [%],AC50 (PKR(R510Q)) [µM],Emax (PKR(R510Q)) [%],Structure (SMILES)
75 to 250,0.1 to 1,250 to 500,75 to 250,0.1 to 1,75 to 250,250 to 50000,0.1 to 1,250 to 500,"O=C(NCc1ccccc1F)N1CC2=C(C1)CN(S(=O)(=O)c1cccnc1)C2 [Example 21-37, N-[(2-fluorophenyl)methyl]-5-(pyridine-3-sulfonyl)-1H,2H,3H,4H,5H,6H-pyrrolo[3,4-c]pyrrole-2-carboxamide]"
75 to 250,1 to 40,75 to 250,75 to 250,1 to 40,75 to 250,75 to 250,1 to 40,75 to 250,"O=C(NCc1ccc(F)cc1)N1CC2=C(C1)CN(S(=O)(=O)c1ccc(C(F)(F)F)nc1)C2 [Example 21-39, N-[(4-fluorophenyl)methyl]-5-{[6-(trifluoromethyl)pyridin-3-yl]sulfonyl}-1H,2H,3H,4H,5H,6H-pyrrolo[3,4-c]pyrrole-2-carboxamide]"
75 to 250,0.1 to 1,75 to 250,75 to 250,1 to 40,75 to 250,75 to 250,0.1 to 1,75 to 250,"O=C(NCc1ccccc1F)N1CC2=C(C1)CN(S(=O)(=O)c1ccc(C(F)(F)F)nc1)C2 [Example 21-40, N-[(2-fluorophenyl)methyl]-5-{[6-(trifluoromethyl)pyridin-3-yl]sulfonyl}-1H,2H,3H,4H,5H,6H-pyrrolo[3,4-c]pyrrole-2-carboxamide]"
75 to 250,0.1 to 1,250 to 500,75 to 250,1 to 40,75 to 250,75 to 250,0.1 to 1,75 to 250,"O=C(NCc1ccc(F)cc1)N1CC2=C(C1)CN(S(=O)(=O)c1ccccn1)C2 [Example 21-41, N-[(4-fluorophenyl)methyl]-5-(pyridine-2-sulfonyl)-1H,2H,3H,4H,5H,6H-pyrrolo[3,4-c]pyrrole-2-carboxamide]"
250 to 50000,0.1 to 1,250 to 500,75 to 250,0.1 to 1,75 to 250,250 to 50000,0.1 to 1,250 to 500,O=C(NCc1ccccc1F)N1CC2=C(C1)CN(S(=O)(=O)c1ccccn1)C2 [Example 21-42]
75 to 250,1 to 40,250 to 500,75 to 250,0.1 to 1,75 to 250,75 to 250,1 to 40,250 to 500,"Cc1cc(CNC(=O)N2CC3=C(C2)CN(S(=O)(=O)c2ccccn2)C3)no1 [Example 21-43, N-[(5-methyl-1,2-oxazol-3-yl)methyl]-5-(pyridine-2-sulfonyl)-1H,2H,3H,4H,5H,6H-pyrrolo[3,4-c]pyrrole-2-carboxamide]"
75 to 250,1 to 40,250 to 500,75 to 250,1 to 40,75 to 250,75 to 250,1 to 40,250 to 500,"O=C(OCC1CC1)N1CC2=C(C1)CN(S(=O)(=O)c1ccc(OC(F)F)cc1)C2 [Example 22-2, Cyclopropylmethyl 5-[4-(difluoromethoxy)benzenesulfonyl]-1H,2H,3H,4H,5H,6H-pyrrolo[3,4-c]pyrrole-2-carboxylate]"
75 to 250,1 to 40,75 to 250,75 to 250,1 to 40,75 to 250,75 to 250,1 to 40,75 to 250,"O=C(OCC1CCOC1)N1CC2=C(C1)CN(S(=O)(=O)c1ccc(OC(F)F)cc1)C2 (stereo not drawn) [Example 22-3, Oxolan-3-ylmethyl 5-[4-(difluoromethoxy)benzenesulfonyl]-1H,2H,3H,4H,5H,6H-pyrrolo[3,4-c]pyrrole-2-carboxylate]"
250 to 50000,0.1 to 1,250 to 500,75 to 250,0.1 to 1,75 to 250,250 to 50000,1 to 40,250 to 500,"Cc1cc(COC(=O)N2CC3=C(C2)CN(S(=O)(=O)c2ccc(OC(F)F)cc2)C3)nn1C [Example 22-4, (1,5-Dimethyl-1H-pyrazol-3-yl)methyl 5-[4-(difluoromethoxy)benzenesulfonyl]-1H,2H,3H,4H,5H,6H-pyrrolo[3,4-c]pyrrole-2-carboxylate]"
250 to 50000,0.1 to 1,250 to 500,75 to 250,0.1 to 1,75 to 250,250 to 50000,0.1 to 1,250 to 500,"Cc1cc(COC(=O)N2CC3=C(C2)CN(S(=O)(=O)c2ccc(OC(F)F)cc2)C3)no1 [Example 22-5, (5-Methyl-1,2-oxazol-3-yl)methyl-5-[4-(difluoromethoxy)benzenesulfonyl]-1H,2H,3H,4H,5H,6H-pyrrolo[3,4-c]pyrrole-2-carboxylate]"
